According to paper PMC9930781, “Design, synthesis, docking, and anticancer evaluations of new thiazolo[3,2-a] pyrimidines as topoisomerase II inhibitors” (Journal of Enzyme Inhibition and Medicinal Chemistry, 2023):
Read-outs that look alike come from different tables or passages of the source. Blank lines part the entries; values can stand above or below the compound they belong to.

Columns and labels:
[1] = tested on: A498 renal cell carcinoma cell line; experiment: MTT cytotoxicity assay, A498; details: Homo sapiens, A498, 24 h
Description: (§1) The MTT test was used to evaluate the inhibitory effects of the substances on cell proliferation in the aforementioned cell lines. This colorimetric assay targets the mitochondrial succinate dehydrogenase of living cells to change yellow tetrazolium bromide (MTT) to a purple formazan derivative. […] Then, the cells were incubated for 24 h and exposed to various chemical concentrations. 20 μL of a 5 mg/mL MTT solution was applied after a 24-h drug treatment period and incubated for 4 h. To dissolve the produced purple formazan, each well receives 100 μL of dimethyl sulfoxide (DMSO). […] The formula for calculating the relative percentage of cell viability was (A570 of treated samples/A570 of the untreated sample) × 100.

[2] = tested on: A549 non-small cell lung cancer (NSCLC) cell line; experiment: MTT cytotoxicity assay, A549; details: Homo sapiens, A549, 24 h
Description: as §1

human topoisomerase II = human topoisomerase II (Homo sapiens, UniProt P11388); experiment: DNA Topo II inhibition (kDNA decatenation) assay; assay type: biochemical; details: for IC50: kDNA decatenation, four concentrations 0.1-100 µM, mean ± SD of two independent assays
Description: The ATP-dependent decatenation of kinetoplast DNA (kDNA) obtained from Crithidia fasciculata, which consists of a network of numerous minicircles (2.3 Kb) and some maxicircles, was used to measure topoisomerase II inhibition. Reactions took place in 20 μL and comprised topoisomerase II, 200–300 ng of kDNA, and 120 mM KCl with 50 mM Tris-HCl, pH 8, 10 mM MgCl2, 0.5 mM ATP, and 0.5 mM dithiothreitol. In preliminary tests, the quantity of topoisomerase II (5 units) was changed to decatenate almost 100% of the kDNA under these assay circumstances. […] The products in the reaction mixture were separated by a 1% agarose gel after the reaction was complete and then could be seen after being stained with ethidium bromide (0.2 μg/mL). The gels were run at 100 V for about 40 min and visualised under UV transillumination.
This assay is based on the fact that human Topo II can decatenate interlinked double-stranded DNA molecules.

[3] = tested on: MCF7 breast cancer cell line; experiment: MTT cytotoxicity assay, MCF7; details: MCF7, MTT
Description: as §1
The newly prepared compounds were screened against three cancer cell lines: namely, breast cancer cell line MCF7, non-small cell lung cancer (NSCLC) cell line A549, and renal cancer cell line A498, using the MTT colorimetric assay.

[4] = read-out: Cytotoxicity IC50 A498± SD, MTT, A498, 24 h treatment, mean ± SD of two independent assays
[5] = read-out: Cytotoxicity IC50 A549± SD, MTT, A549, 24 h treatment, mean ± SD of two independent assays

Chain of human topoisomerase II (P11388 whole entry): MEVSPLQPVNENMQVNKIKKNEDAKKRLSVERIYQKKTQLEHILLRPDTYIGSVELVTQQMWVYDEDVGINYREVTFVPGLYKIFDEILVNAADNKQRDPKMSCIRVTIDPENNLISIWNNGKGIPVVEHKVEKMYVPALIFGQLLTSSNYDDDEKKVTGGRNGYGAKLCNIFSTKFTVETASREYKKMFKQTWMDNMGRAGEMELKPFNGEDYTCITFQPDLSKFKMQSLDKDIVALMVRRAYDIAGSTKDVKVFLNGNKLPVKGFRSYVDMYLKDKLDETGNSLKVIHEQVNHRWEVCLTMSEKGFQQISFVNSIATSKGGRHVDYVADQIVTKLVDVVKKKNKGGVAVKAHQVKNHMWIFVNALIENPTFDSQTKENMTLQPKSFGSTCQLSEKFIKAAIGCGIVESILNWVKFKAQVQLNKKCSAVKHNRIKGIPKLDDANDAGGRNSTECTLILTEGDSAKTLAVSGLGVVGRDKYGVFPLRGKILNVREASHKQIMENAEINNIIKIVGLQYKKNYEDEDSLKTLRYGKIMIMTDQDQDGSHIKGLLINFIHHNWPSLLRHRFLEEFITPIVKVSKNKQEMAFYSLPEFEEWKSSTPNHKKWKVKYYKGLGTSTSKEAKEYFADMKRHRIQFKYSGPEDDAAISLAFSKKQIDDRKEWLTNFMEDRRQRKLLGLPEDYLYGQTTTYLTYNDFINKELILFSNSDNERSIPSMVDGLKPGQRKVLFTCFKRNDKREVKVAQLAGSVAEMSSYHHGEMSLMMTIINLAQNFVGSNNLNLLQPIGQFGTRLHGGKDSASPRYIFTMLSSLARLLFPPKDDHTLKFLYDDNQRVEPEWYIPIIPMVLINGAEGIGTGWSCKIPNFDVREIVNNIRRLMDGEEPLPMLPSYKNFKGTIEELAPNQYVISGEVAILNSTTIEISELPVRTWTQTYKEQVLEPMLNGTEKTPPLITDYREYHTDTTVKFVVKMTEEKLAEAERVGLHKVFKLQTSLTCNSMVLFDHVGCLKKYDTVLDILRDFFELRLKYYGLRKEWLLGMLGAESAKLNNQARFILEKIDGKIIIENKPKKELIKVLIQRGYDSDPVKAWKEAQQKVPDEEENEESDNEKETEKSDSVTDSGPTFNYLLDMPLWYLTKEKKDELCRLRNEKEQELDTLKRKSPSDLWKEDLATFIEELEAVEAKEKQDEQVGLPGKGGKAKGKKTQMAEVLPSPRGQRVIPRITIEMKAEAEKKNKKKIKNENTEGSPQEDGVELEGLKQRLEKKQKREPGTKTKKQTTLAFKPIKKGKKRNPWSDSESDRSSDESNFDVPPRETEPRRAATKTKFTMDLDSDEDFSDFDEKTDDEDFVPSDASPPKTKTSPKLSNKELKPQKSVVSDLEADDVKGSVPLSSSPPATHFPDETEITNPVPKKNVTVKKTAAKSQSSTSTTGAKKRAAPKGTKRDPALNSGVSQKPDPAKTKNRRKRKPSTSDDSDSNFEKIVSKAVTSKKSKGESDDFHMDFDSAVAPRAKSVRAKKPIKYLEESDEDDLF

Compound: CCOC(=O)C1=C(C)N=C2SC=C(NC(=O)CCl)N2C1c1ccc(OC)cc1OC (stereo not shown) [Compound 5, ethyl 3–(2-chloroacetamido)-5–(2,4-dimethoxyphenyl)-7-methyl-5H-thiazolo[3,2-a]pyrimidine-6-carboxylate]
melting point: 150 to 152 °C

Compound: CCOC(=O)C1=C(C)N=c2sc(=Cc3ccc(OC)cc3)c(=O)n2C1c1ccc(OC)cc1OC (stereo not shown) [Compound 3b, Ethyl 5–(2,4-dimethoxyphenyl)-2–(4-methoxybenzylidene)-7-methyl-3-oxo-2,3-dihydro-5H-thiazolo[3,2-a]pyrimidine-6-carboxylate]
IC50 [1, 4]: 46 nM | IC50 [2, 5]: 24 nM | melting point: 175 to 177 °C | %inh TOPO II (human topoisomerase II; conc 0.1 (μM)): 19% | %inh TOPO II (human topoisomerase II; conc 1 (μM)): 30% | %inh TOPO II (human topoisomerase II; conc 10 (μM)): 48% | %inh TOPO II (human topoisomerase II; conc 100 (μM)): 80% | IC50 (human topoisomerase II): 6140 ± 360 nM

Compound: ethyl 4–(2,4-dimethoxyphenyl)-6-methyl-2-thioxo-1,2,3,6-tetrahydropyrimidine-5-carboxylate [Compound 1]
% viability ([3]; 0.4ug): 81.002% | % viability ([3]; 1.6ug): 67.624% | % viability ([3]; 6.3ug): 61.271% | % viability ([3]; 25ug): 51.07% | % viability ([3]; 100ug): 44.533%

Compound: CCOC(=O)C1=C(C)N=c2sc(=Cc3ccc(OC)cc3OC)c(=O)n2C1c1ccc(OC)cc1OC (stereo not shown) [Compound 3c, Ethyl 2–(2,4-dimethoxybenzylidene)-5–(2,4-dimethoxyphenyl)-7-methyl-3-oxo-2,3-dihydro-5H-thiazolo[3,2-a]pyrimidine-6-carboxylate]
IC50 [1, 4]: 9 nM | IC50 [2, 5]: 19 nM | %inh TOPO II (human topoisomerase II; conc 0.1 (μM)): 31% | %inh TOPO II (human topoisomerase II; conc 1 (μM)): 45% | %inh TOPO II (human topoisomerase II; conc 10 (μM)): 63% | %inh TOPO II (human topoisomerase II; conc 100 (μM)): 89% | IC50 (human topoisomerase II): 1390 ± 80 nM

Compound: CCOC(=O)C1=C(C)N=c2sc(=Cc3cc(OC)c(OC)c(OC)c3)c(=O)n2C1c1ccc(OC)cc1OC (stereo not shown) [Compound 3d, Ethyl 5–(2,4-dimethoxyphenyl)-7-methyl-3-oxo-2–(3,4,5-trimethoxybenzylidene)-2,3-dihydro-5H-thiazolo[3,2-a]pyrimidine-6-carboxylate]
IC50 [1, 4]: 4 nM | IC50 [2, 5]: 12 nM | melting point: 190 to 192 °C | %inh TOPO II (human topoisomerase II; conc 0.1 (μM)): 28% | %inh TOPO II (human topoisomerase II; conc 1 (μM)): 41% | %inh TOPO II (human topoisomerase II; conc 10 (μM)): 59% | %inh TOPO II (human topoisomerase II; conc 100 (μM)): 85% | IC50 (human topoisomerase II): 2210 ± 130 nM

Compound: COc1cccc2c1C(=O)c1c(O)c3c(c(O)c1C2=O)C[C@@](O)(C(=O)CO)C[C@@H]3O[C@H]1C[C@H](N)[C@H](O)[C@H](C)O1 [Doxorubicin, reference compound]
IC50 ([1]; read-out: Cytotoxicity IC50 A498± SD): 7 nM | IC50 ([2]; read-out: Cytotoxicity IC50 A549± SD): 13 nM | %inh TOPO II (human topoisomerase II; conc 0.1 (μM)): 30% | %inh TOPO II (human topoisomerase II; conc 1 (μM)): 51% | %inh TOPO II (human topoisomerase II; conc 10 (μM)): 77% | %inh TOPO II (human topoisomerase II; conc 100 (μM)): 90%

Compound: Ethyl 5–(2,4-dimethoxyphenyl)-7-methyl-3-((2-oxo-2-(piperazin-1-yl)ethyl)amino)-5H-thiazolo[3,2-a]pyrimidine-6-carboxylate [Compound 6c]
% viability ([3]; 0.4ug): 77.067% | % viability ([3]; 1.6ug): 70.045% | % viability ([3]; 6.3ug): 60.702% | % viability ([3]; 25ug): 51.13% | % viability ([3]; 100ug): 43.771%

Compound: CCOC(=O)C1=C(C)N=C2SC=C(N)N2C1c1ccc(OC)cc1OC (stereo not shown) [Compound 2, ethyl 3-amino-5–(2,4-dimethoxyphenyl)-7-methyl-5H-thiazolo[3,2-a] pyrimidine-6-carboxylate]
IC50 [1, 4]: 332 nM | IC50 [2, 5]: 23 nM | melting point: 172 to 174 °C

Compound: CCOC(=O)C1=C(C)N=C2SCC(=O)N2C1c1ccc(OC)cc1OC (stereo not shown) [Compound 3a, Ethyl 5–(2,4-dimethoxyphenyl)-7-methyl-3-oxo-3,5-dihydro-5H-thiazolo[3,2-a] pyrimidine-6-carboxylate]
IC50 [1, 4]: 73 nM | IC50 [2, 5]: 93 nM | melting point: 195 to 197 °C

Second part, led by results:

melting point: 150 to 152 °C
Compound: CCOC(=O)C1=C(C)N=C2SC=C(NC(=O)c3ccc(Cl)cc3)N2C1c1ccc(OC)cc1OC (stereo not shown) [Compound 4a, Ethyl 3–(4-chlorobenzamido)-5–(2,4-dimethoxyphenyl)-7-methyl-5H-thiazolo[3,2-a]pyrimidine-6-carboxylate]

%inh TOPO II (human topoisomerase II; conc 0.1 (μM)): 28% | %inh TOPO II (human topoisomerase II; conc 1 (μM)): 44% | %inh TOPO II (human topoisomerase II; conc 10 (μM)): 67% | %inh TOPO II (human topoisomerase II; conc 100 (μM)): 88% | IC50 (human topoisomerase II): 1510 ± 90 nM
Compound: CCOC(=O)C1=C(C)N=C2SC=C(NC(=O)CN3CCOCC3)N2C1c1ccc(OC)cc1OC (stereo not shown) [Compound 6b]
IC50 [1, 4]: 10 nM | IC50 [2, 5]: 6 nM

%inh TOPO II (human topoisomerase II; conc 0.1 (μM)): 28% | %inh TOPO II (human topoisomerase II; conc 1 (μM)): 52% | %inh TOPO II (human topoisomerase II; conc 10 (μM)): 71% | %inh TOPO II (human topoisomerase II; conc 100 (μM)): 88% | IC50 (human topoisomerase II): 1050 ± 60 nM
Compound: CCOC(=O)C1=C(C)N=C2SC=C(NC(=O)Nc3ccc(Cl)c(C(F)(F)F)c3)N2C1c1ccc(OC)cc1OC (stereo not shown) [Compound 7b, Ethyl 3–(3-(4-chloro-3-(trifluoromethyl)phenyl)ureido)-5–(2,4-dimethoxyphenyl)-7-methyl-5H-thiazolo[3,2-a]pyrimidine-6-carboxylate]
IC50 [1, 4]: 9 nM | IC50 [2, 5]: 19 nM

%inh TOPO II (human topoisomerase II; conc 0.1 (μM)): 20% | %inh TOPO II (human topoisomerase II; conc 1 (μM)): 34% | %inh TOPO II (human topoisomerase II; conc 10 (μM)): 57% | %inh TOPO II (human topoisomerase II; conc 100 (μM)): 84% | IC50 (human topoisomerase II): 3560 ± 210 nM
Compound: CCOC(=O)C1=C(C)N=C2SC=C(NC(=O)Nc3ccc(Cl)cc3)N2C1c1ccc(OC)cc1OC (stereo not shown) [Compound 7a, Ethyl 3–(3-(4-chlorophenyl)ureido)-5–(2,4-dimethoxyphenyl)-7-methyl-5H-thiazolo[3,2-a]pyrimidine-6-carboxylate]

%inh TOPO II (human topoisomerase II; conc 0.1 (μM)): 26% | %inh TOPO II (human topoisomerase II; conc 1 (μM)): 42% | %inh TOPO II (human topoisomerase II; conc 10 (μM)): 67% | %inh TOPO II (human topoisomerase II; conc 100 (μM)): 83% | IC50 (human topoisomerase II): 1880 ± 110 nM
Compound: CCOC(=O)C1=C(C)N=C2SC=C(NC(=O)CN3CCN(CC)CC3)N2C1c1ccc(OC)cc1OC (stereo not shown) [Compound 6a]
IC50 [1, 4]: 2 nM | IC50 [2, 5]: 8 nM
